Measurements published in patent US10561667B2, “Orbit azine-fumarate, hydrate, crystal form and preparation method therefor” (SHENZHEN ZHENXING MEDICAL TECHNOLOGY CO., LTD., priority 2015, dated 2020).

Legend:
[1] = Stability of crystal forms in sodium phosphate/hydrochloric acid buffer pH=6.8 (37° C.); format: physicochemical; settings: for Purity: pH = 6.8 buffer, 37° C.
Method: 1. Test on Stability of Crystal Forms in Different Media
1.1 Stability of Different Crystal Forms in Sodium Phosphate/Hydrochloric Acid Buffer pH=6.8 (37° C.)

[2] = Affect factor test: related substance and transformation in crystal form (10 days); format: physicochemical; settings: for Purity, High temperature (60° C.) / Purity, High humidity (RH = 92.5%) / Purity, Illumination (ultraviolet lamp): 10 days; for Crystal form: after 10 days at high temperature, high humidity or illumination; for Purity of raw material: before the affect factor test (baseline); for Stability of purity: high temperature, high humidity, or illumination, 10 days later
From the text: (§1) 3. Affect Factor Test of Different Crystal Forms
3.1 Related Substance and Transformation in Crystal Form (10 Days)

Hygroscopicity = format: physicochemical
Method: (§2) 3.2 Change in Appearance and Hygroscopicity (10 Days)
Hygroscopicity was measured by reference to methods in Appendix X IX J Laboratory Procedure on Determination of Hygroscopicity of Drugs in Pharmacopoeia of The People's Republic of China (2010).

[3] = tested on: human colorectal cancer cell SW480; assay: MTT proliferation inhibition, SW480; format: cell-based
From the text: (§3) The tumor cells included, but were not limited to the following cells: human colorectal cancer cell SW480, human gastric adenocarcinoma cell MGC-803, human […], human lymphoma cell U937, human liver cancer cell Hep-G2, human cervical cancer cell Hela, human neuroglioma cell BT-325, human medulloblastoma D341 Med, and human gallbladder cancer cell GBC-SD.
(§4) Experimental method: cells in exponential growth phase were collected, and seeded to a 96-well cell culture plate, at a final concentration of 5×10^3 cells/90 μl/well. […] After the treatment for 72 h, 10 μl MTT solution (5 mg/ml, Sigma) was added to each well, and the cells were further cultured for 4 h. The culture medium was discarded, 100 μl DMSO was added to each well, and dissolution was carried out under rotation on a shaking table for 10 min.

[4] = tested on: human gastric adenocarcinoma cell MGC-803; assay: MTT proliferation inhibition, MGC-803; format: cell-based; settings: MGC-803, MTT
From the text: as §3, §4

[5] = tested on: human small cell lung adenocarcinoma cell A549; assay: MTT proliferation inhibition, A549; format: cell-based
From the text: as §3, §4

human lymphoma cell U937 = assay: MTT proliferation inhibition, U937; format: cell-based
From the text: as §3, §4

[6] = tested on: human liver cancer cell Hep-G2; assay: MTT proliferation inhibition, Hep-G2; format: cell-based
From the text: as §3, §4

[7] = tested on: human cervical cancer cell Hela; assay: MTT proliferation inhibition, Hela; format: cell-based; settings: 72 h
From the text: as §3, §4

[8] = tested on: human neuroglioma cell BT-325; assay: MTT proliferation inhibition, BT-325; format: cell-based; settings: BT-325, MTT, 72 h
From the text: as §3, §4

[9] = tested on: human medulloblastoma D341 Med; assay: MTT proliferation inhibition, D341 Med; format: cell-based; settings: 72 h
From the text: as §3, §4

[10] = tested on: human gallbladder cancer cell GBC-SD; assay: MTT proliferation inhibition, GBC-SD; format: cell-based; settings: 72 h
From the text: as §3, §4

[11] = Affect factor test: change in appearance (10 days); format: physicochemical
From the text: as §1, §2

[12] = Stability of crystal forms in hydrochloric acid solution pH=1.2 (37° C.); format: physicochemical; settings: for Purity: pH = 1.2 hydrochloric acid solution, 37° C.; for Change of purity: stirred in hydrochloric acid medium pH=1.2 for 24 h
Method: 1.2 Stability of Different Crystal Forms in Hydrochloric Acid Solution with pH=1.2 (37° C.)

[13] = 72 h, listed as an amorphous form
[14] = 0 h (baseline), monofumarate monohydrate

SMILES: C=CCc1cccc(/C=N/NC(=O)CN2CCCN(Cc3ccccc3)CC2)c1O [Amorphous form, orbit azine monofumarate]
- Purity ([1]; 0 h (baseline)): 97.980%
- Purity ([1]; 4 h): 87.266%
- Purity ([1]; 24 h): 85.026%
- Purity, High temperature (60° C.) [2]: 95.989%
- Purity, High humidity (RH = 92.5%) [2]: 97.537%
- Crystal form [2]: converted to Form B under the condition of high humidity
- Purity of raw material [2]: 97.980%
- Purity, Illumination (ultraviolet lamp) [2]: 96.880%
- Hygroscopicity, weight increase/% (Hygroscopicity; 2014 Nov. 17 to 2014 Nov. 24): 118.620%
- Hygroscopicity (Hygroscopicity; moisture absorption): significant weight increase
- IC50 [3, 13]: 1780 nM
- IC50 [4, 13]: 1600 nM
- IC50 [5, 13]: 2970 nM
- IC50 (human lymphoma cell U937; [13]): 418 nM
- IC50 [6, 13]: 8380 nM
- IC50 ([7]; listed as an amorphous form): 5650 nM
- IC50 ([8]; listed as an amorphous form): 2520 nM
- IC50 ([9]; listed as an amorphous form): 447 nM
- IC50 ([10]; listed as an amorphous form): 6580 nM

SMILES: C=CCc1cccc(/C=N/NC(=O)CN2CCCN(Cc3ccccc3)CC2)c1O [Form A, orbit azine monofumarate]
- Purity ([1]; 0 h (baseline)): 98.069%
- Purity ([1]; 4 h): 87.153%
- Purity ([1]; 24 h): 84.864%
- Purity, High temperature (60° C.) [2]: 97.665%
- Purity, High humidity (RH = 92.5%) [2]: 97.699%
- Crystal form [2]: Form A
- Purity of raw material [2]: 98.096%
- Stability of purity [2]: relatively stable
- Purity, Illumination (ultraviolet lamp) [2]: 97.775%
- Appearance ([11]; High humidity): white solid
- Appearance ([11]; High temperature): white solid
- Appearance ([11]; Illumination): white solid
- Water absorbability (Hygroscopicity; product of Example 1): no water absorbability
- IC50 ([3]; 72 h): 1770 nM
- IC50 ([4]; 72 h): 1360 nM
- IC50 ([5]; 72 h): 2990 nM
- IC50 (human lymphoma cell U937; 72 h): 425 nM
- IC50 ([6]; 72 h): 8410 nM
- IC50 [7]: 5680 nM
- IC50 [8]: 2880 nM
- IC50 [9]: 433 nM
- IC50 [10]: 6480 nM

SMILES: C=CCc1cccc(/C=N/NC(=O)CN2CCCN(Cc3ccccc3)CC2)c1O [Form B, orbit azine monofumarate monohydrate]
- Degradation in the medium with pH=6.8 ([1]; pH = 6.8, 37° C.): degraded to a slightly less extent
- Purity [1, 14]: 98.413%
- Purity ([1]; 4 h, monofumarate monohydrate): 93.112%
- Purity ([1]; 24 h, monofumarate monohydrate): 90.266%
- Extent of degradation compared ([12]; hydrochloric acid medium pH=1.2): degraded to a slightly less extent
- Purity [12, 14]: 98.413%
- Purity ([12]; 24 h, monofumarate monohydrate): 79.443%
- Purity ([12]; 48 h, monofumarate monohydrate): 78.122%
- Change of purity [12]: decreased greatly
- Purity, High temperature (60° C.) ([2]; monofumarate monohydrate): 97.809%
- Purity, High humidity (RH = 92.5%) ([2]; monofumarate monohydrate): 98.176%
- Crystal form ([2]; monofumarate monohydrate): Form B
- Purity of raw material ([2]; monofumarate monohydrate): 98.413%
- Stability of purity [2]: relatively stable
- Purity, Illumination (ultraviolet lamp) ([2]; monofumarate monohydrate): 98.116%
- Appearance ([11]; High humidity, monofumarate monohydrate): white solid
- Appearance ([11]; High temperature, monofumarate monohydrate): white solid
- Appearance ([11]; Illumination, monofumarate monohydrate): white solid
- IC50 ([3]; 72 h, monofumarate monohydrate): 1980 nM
- IC50 ([4]; 72 h, monofumarate monohydrate): 1390 nM
- IC50 ([5]; 72 h, monofumarate monohydrate): 2900 nM
- IC50 (human lymphoma cell U937; 72 h, monofumarate monohydrate): 495 nM
- IC50 ([6]; 72 h, monofumarate monohydrate): 8320 nM
- IC50 ([7]; monofumarate monohydrate): 5760 nM
- IC50 ([8]; monofumarate monohydrate): 2310 nM
- IC50 ([9]; monofumarate monohydrate): 430 nM
- IC50 ([10]; monofumarate monohydrate): 6160 nM

SMILES: C=CCc1cccc(/C=N/NC(=O)CN2CCCN(Cc3ccccc3)CC2)c1O [Form C, orbit azine difumarate]
- Purity ([1]; 0 h (baseline)): 94.584%
- Purity ([1]; 4 h): 83.292%
- Purity ([1]; 24 h): 82.680%
- Purity ([12]; 0 h (baseline)): 97.865%
- Purity ([12]; 24 h): 72.042%
- Purity ([12]; 48 h): 71.017%
- Change of purity [12]: decreased greatly
- Purity, High temperature (60° C.) [2]: 97.244%
- Purity, High humidity (RH = 92.5%) [2]: 97.733%
- Crystal form [2]: Form C
- Purity of raw material [2]: 97.865%
- Purity, Illumination (ultraviolet lamp) [2]: 95.696%
- Change of color [11]: turned slightly yellow
- Appearance ([11]; High humidity): white solid
- Appearance ([11]; High temperature): white solid
- IC50 ([3]; 72 h): 1920 nM
- IC50 ([4]; 72 h): 1280 nM
- IC50 ([5]; 72 h): 3070 nM
- IC50 (human lymphoma cell U937; 72 h): 391 nM
- IC50 ([6]; 72 h): 8210 nM
- IC50 [7]: 5490 nM
- IC50 [8]: 2650 nM
- IC50 [9]: 411 nM
- IC50 [10]: 6370 nM

SMILES: C=CCc1cccc(/C=N/NC(=O)CN2CCCN(Cc3ccccc3)CC2)c1O [Form D, orbit azine difumarate]
- Purity ([1]; 0 h (baseline)): 97.999%
- Purity ([1]; 4 h): 85.418%
- Purity ([1]; 24 h): 84.552%
- IC50 ([3]; Homo sapiens, SW480, 72 h): 1670 nM
- IC50 ([4]; Homo sapiens, MGC-803, 72 h): 1450 nM
- IC50 ([5]; Homo sapiens, A549, 72 h): 2870 nM
- IC50 (human lymphoma cell U937; Homo sapiens, U-937, 72 h): 414 nM
- IC50 ([6]; Homo sapiens, HepG2, 72 h): 8180 nM
- IC50 ([7]; Homo sapiens, HeLa): 5170 nM
- IC50 ([8]; Homo sapiens): 2710 nM
- IC50 ([9]; Homo sapiens): 484 nM
- IC50 ([10]; Homo sapiens): 6950 nM
